{"source": "PubChem BioAssay AID1918991", "about": "(Molecular Pharmacology Branch, DTP, NCI, 2023);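 also: spheroids exposed to compounds for seven days before the viability read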;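 as to viability, T/C: luminescent signal used as a stand-in for viable cell amount; 100% = DMSO vehicle control wells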", "tested_on": "186277-243-T-J2-PDC complex spheroid growth", "assay": "Anticancer human tumor 186277-243-T-J2-PDC patient-derived colon adenocarcinoma cell line growth inhibition [AhR]", "conditions": "for IC50: curve of first compound; for viability, T/C: stronger effect = lower value", "outline": "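Complex tumor spheroids co-cultured with HUVEC and human MSC stroma; AhR antagonists tested in combination with standard-of-care and investigational agents. Top concentration at or near clinical Cmax (else 10 microM), half-log dilutions; growth expressed as percent test/control.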", "key": {"[1]": {"conditions": "second compound 0.1 µM, first compound 0.0316 µM"}, "[2]": {"conditions": "second compound 0.1 µM, first compound 0.1 µM"}, "[3]": {"conditions": "second compound 0.1 µM, first compound 0.316 µM"}, "[4]": {"conditions": "second compound 0.1 µM, first compound 1 µM"}, "[5]": {"conditions": "second compound 0.316 µM, first compound 0.0316 µM"}, "[6]": {"conditions": "second compound 0.316 µM, first compound 0.1 µM"}, "[7]": {"conditions": "second compound 0.316 µM, first compound 0.316 µM"}, "[8]": {"conditions": "second compound 0.316 µM, first compound 1 µM"}, "[9]": {"conditions": "second compound 1 µM, first compound 0.0316 µM"}, "[10]": {"conditions": "second compound 1 µM, first compound 0.1 µM"}, "[11]": {"conditions": "second compound 1 µM, first compound 0.316 µM"}, "[12]": {"conditions": "second compound 1 µM, first compound 1 µM"}, "[13]": {"conditions": "second compound 3.16 µM, first compound 0.0316 µM"}, "[14]": {"conditions": "second compound 3.16 µM, first compound 0.1 µM"}, "[15]": {"conditions": "second compound 3.16 µM, first compound 0.316 µM"}, "[16]": {"conditions": "second compound 3.16 µM, first compound 1 µM"}, "[17]": {"conditions": "second compound 10 µM, first compound 0.0316 µM"}, "[18]": {"conditions": "second compound 10 µM, first compound 0.1 µM"}, "[19]": {"conditions": "second compound 10 µM, first compound 0.316 µM"}, "[20]": {"conditions": "second compound 10 µM, first compound 1 µM"}}}
{"smiles": "CC1COCCN1c1cc(-c2ccnn2C)c2ccnc(-c3ccn[nH]3)c2n1", "note": "(stereo not given) + Cc1cncc(-c2nc(NCCc3c[nH]c4ccccc34)c3ncn(C(C)C)c3n2)c1", "values": [{"measurement": "IC50", "setting": "second compound 0.1 µM", "value": 79.8, "unit": "nM"}, {"measurement": "IC50", "setting": "second compound 0.316 µM", "value": 79.3, "unit": "nM"}, {"measurement": "IC50", "setting": "second compound 1 µM", "value": 80.9, "unit": "nM"}, {"measurement": "IC50", "setting": "second compound 3.16 µM", "value": 72.9, "unit": "nM"}, {"measurement": "IC50", "setting": "second compound 10 µM", "value": "< 3.16", "unit": "nM"}, {"measurement": "viability, T/C", "setting": "second compound 0.1 µM, first compound 0.00316 µM", "value": 99, "unit": "%"}, {"measurement": "viability, T/C", "setting": "second compound 0.1 µM, first compound 0.01 µM", "value": 106, "unit": "%"}, {"measurement": "viability, T/C", "setting": "[1]", "value": 112, "unit": "%"}, {"measurement": "viability, T/C", "setting": "[2]", "value": 36.4, "unit": "%"}, {"measurement": "viability, T/C", "setting": "[3]", "value": 7.55, "unit": "%"}, {"measurement": "viability, T/C", "setting": "[4]", "value": 3.82, "unit": "%"}, {"measurement": "viability, T/C", "setting": "second compound 0.316 µM, first compound 0.00316 µM", "value": 97.4, "unit": "%"}, {"measurement": "viability, T/C", "setting": "second compound 0.316 µM, first compound 0.01 µM", "value": 106, "unit": "%"}, {"measurement": "viability, T/C", "setting": "[5]", "value": 122, "unit": "%"}, {"measurement": "viability, T/C", "setting": "[6]", "value": 35.2, "unit": "%"}, {"measurement": "viability, T/C", "setting": "[7]", "value": 8.4, "unit": "%"}, {"measurement": "viability, T/C", "setting": "[8]", "value": 4.07, "unit": "%"}, {"measurement": "viability, T/C", "setting": "second compound 1 µM, first compound 0.00316 µM", "value": 107, "unit": "%"}, {"measurement": "viability, T/C", "setting": "second compound 1 µM, first compound 0.01 µM", "value": 90, "unit": "%"}, {"measurement": "viability, T/C", "setting": "[9]", "value": 119, "unit": "%"}, {"measurement": "viability, T/C", "setting": "[10]", "value": 37.4, "unit": "%"}, {"measurement": "viability, T/C", "setting": "[11]", "value": 7.76, "unit": "%"}, {"measurement": "viability, T/C", "setting": "[12]", "value": 5.82, "unit": "%"}, {"measurement": "viability, T/C", "setting": "second compound 3.16 µM, first compound 0.00316 µM", "value": 95.3, "unit": "%"}, {"measurement": "viability, T/C", "setting": "second compound 3.16 µM, first compound 0.01 µM", "value": 105, "unit": "%"}, {"measurement": "viability, T/C", "setting": "[13]", "value": 116, "unit": "%"}, {"measurement": "viability, T/C", "setting": "[14]", "value": 29, "unit": "%"}, {"measurement": "viability, T/C", "setting": "[15]", "value": 9.02, "unit": "%"}, {"measurement": "viability, T/C", "setting": "[16]", "value": 5.27, "unit": "%"}, {"measurement": "viability, T/C", "setting": "second compound 10 µM, first compound 0.00316 µM", "value": 25.3, "unit": "%"}, {"measurement": "viability, T/C", "setting": "second compound 10 µM, first compound 0.01 µM", "value": 26.8, "unit": "%"}, {"measurement": "viability, T/C", "setting": "[17]", "value": 13.8, "unit": "%"}, {"measurement": "viability, T/C", "setting": "[18]", "value": 6.13, "unit": "%"}, {"measurement": "viability, T/C", "setting": "[19]", "value": 3.4, "unit": "%"}, {"measurement": "viability, T/C", "setting": "[20]", "value": 2.65, "unit": "%"}]}
{"smiles": "COc1ccc([C@@H](O)c2cc(-c3ncnc4cc(N5CCOCC5)ccc34)c(F)cc2Cl)nn1", "note": "+ Cc1cncc(-c2nc(NCCc3c[nH]c4ccccc34)c3ncn(C(C)C)c3n2)c1", "values": [{"measurement": "IC50", "setting": "second compound 0.1 µM", "value": "> 10000", "unit": "nM"}, {"measurement": "IC50", "setting": "second compound 0.316 µM", "value": "> 10000", "unit": "nM"}, {"measurement": "IC50", "setting": "second compound 1 µM", "value": "> 10000", "unit": "nM"}, {"measurement": "IC50", "setting": "second compound 3.16 µM", "value": "> 10000", "unit": "nM"}, {"measurement": "IC50", "setting": "second compound 10 µM", "value": "< 31.6", "unit": "nM"}, {"measurement": "viability, T/C", "setting": "[1]", "value": 103, "unit": "%"}, {"measurement": "viability, T/C", "setting": "[2]", "value": 102, "unit": "%"}, {"measurement": "viability, T/C", "setting": "[3]", "value": 104, "unit": "%"}, {"measurement": "viability, T/C", "setting": "[4]", "value": 116, "unit": "%"}, {"measurement": "viability, T/C", "setting": "second compound 0.1 µM, first compound 3.16 µM", "value": 94.2, "unit": "%"}, {"measurement": "viability, T/C", "setting": "second compound 0.1 µM, first compound 10 µM", "value": 66.2, "unit": "%"}, {"measurement": "viability, T/C", "setting": "[5]", "value": 109, "unit": "%"}, {"measurement": "viability, T/C", "setting": "[6]", "value": 102, "unit": "%"}, {"measurement": "viability, T/C", "setting": "[7]", "value": 98.3, "unit": "%"}, {"measurement": "viability, T/C", "setting": "[8]", "value": 104, "unit": "%"}, {"measurement": "viability, T/C", "setting": "second compound 0.316 µM, first compound 3.16 µM", "value": 114, "unit": "%"}, {"measurement": "viability, T/C", "setting": "second compound 0.316 µM, first compound 10 µM", "value": 64.4, "unit": "%"}, {"measurement": "viability, T/C", "setting": "[9]", "value": 103, "unit": "%"}, {"measurement": "viability, T/C", "setting": "[10]", "value": 103, "unit": "%"}, {"measurement": "viability, T/C", "setting": "[11]", "value": 113, "unit": "%"}, {"measurement": "viability, T/C", "setting": "[12]", "value": 113, "unit": "%"}, {"measurement": "viability, T/C", "setting": "second compound 1 µM, first compound 3.16 µM", "value": 99.4, "unit": "%"}, {"measurement": "viability, T/C", "setting": "second compound 1 µM, first compound 10 µM", "value": 68.7, "unit": "%"}, {"measurement": "viability, T/C", "setting": "[13]", "value": 94, "unit": "%"}, {"measurement": "viability, T/C", "setting": "[14]", "value": 107, "unit": "%"}, {"measurement": "viability, T/C", "setting": "[15]", "value": 115, "unit": "%"}, {"measurement": "viability, T/C", "setting": "[16]", "value": 106, "unit": "%"}, {"measurement": "viability, T/C", "setting": "second compound 3.16 µM, first compound 3.16 µM", "value": 101, "unit": "%"}, {"measurement": "viability, T/C", "setting": "second compound 3.16 µM, first compound 10 µM", "value": 55.7, "unit": "%"}, {"measurement": "viability, T/C", "setting": "[17]", "value": 23.3, "unit": "%"}, {"measurement": "viability, T/C", "setting": "[18]", "value": 21.7, "unit": "%"}, {"measurement": "viability, T/C", "setting": "[19]", "value": 20.6, "unit": "%"}, {"measurement": "viability, T/C", "setting": "[20]", "value": 26, "unit": "%"}, {"measurement": "viability, T/C", "setting": "second compound 10 µM, first compound 3.16 µM", "value": 16.6, "unit": "%"}, {"measurement": "viability, T/C", "setting": "second compound 10 µM, first compound 10 µM", "value": 13.2, "unit": "%"}]}
